# According to patent publication US5190922A (priority 1991, dated 1993):
# Non-standard residues stand in square brackets, D forms with d. Residues, ends and D or L forms follow the SMILES beside them. *: point of attachment. Butanoyl(3S-Ph) = C[C@@H](CC(=O)*)c1ccccc1; X6 = N#CC(Cc1ccccc1)(Cc1ccccc1)C(=O)*; NMeF = CN[C@@H](Cc1ccccc1)C(=O)O; X11 = O=[N+]([O-])c1cccc(CN*)c1; Cha = N[C@@H](CC1CCCCC1)C(=O)O; dCha = N[C@H](CC1CCCCC1)C(=O)O; Phe(ol) = N[C@H](CO)Cc1ccccc1; X9 = CC[C@H](C(=O)*)c1ccccc1; X2 = N#CC(Cc1ccccc1)C(=O)*; X7 = O=C(C(CO)c1ccccc1)*; NHBn = c1ccc(CN*)cc1
# Target: T1, C5a Receptor (Homo sapiens, UniProt P21730)
# T1 construct: 2.5-25 μg/mL of purified PMNL membrane fragments; from tissue; host or cells: polymorphonuclear leukocyte (PMNL) membrane fragments
# T1 sequence (P21730 1-350): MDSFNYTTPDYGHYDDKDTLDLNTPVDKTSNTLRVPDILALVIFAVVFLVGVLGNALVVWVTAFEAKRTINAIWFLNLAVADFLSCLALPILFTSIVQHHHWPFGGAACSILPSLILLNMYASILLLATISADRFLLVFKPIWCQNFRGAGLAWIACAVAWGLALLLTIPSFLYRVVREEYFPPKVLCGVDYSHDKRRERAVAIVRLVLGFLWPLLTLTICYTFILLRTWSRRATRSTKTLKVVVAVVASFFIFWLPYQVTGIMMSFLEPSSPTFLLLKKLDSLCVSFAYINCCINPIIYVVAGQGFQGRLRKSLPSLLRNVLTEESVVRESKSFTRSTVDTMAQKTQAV
# Assay: Anaphylatoxin receptor binding Ki determination (inhibition of 125I-C5a binding to PMNL membrane fragments)
# Conditions: not given
# Experimental: Specific inhibition of C5 a binding activity of representative compounds of the present invention was measured using 0.03-1 nM ^125 I-C5 a with 2.5-25 μg/mL of purified PMNL membrane fragments (Borregaard, N.; Heiple, J. M.; Simons, E. R.; and Clark, R. A. J. Cell. Biol. 1983, 97, 52-61.). Free and membrane-bound ligand were separated by filtration.
row,SMILES,Ki
1,"N#CC(Cc1ccccc1)C(=O)N[C@@H](CCCCN)C(=O)N1CCC[C@H]1C(=O)N[C@H](CC1CCCCC1)C(=O)N[C@@H](Cc1ccccc1)C(=O)N[C@H](CCCNC(=N)N)C(=O)O (stereo partly drawn) [Example 99, {(2RS)-2-Cyano-3-phenylpropionyl}-Lysyl-Prolyl-{(2R)-2-Amino-3-cyclohexylpropanoyl}-Phenylalanyl-DArginyl-OH] (X2-KP[dCha]F[dR]-OH)",120 nM

# Same assay, conditions: 0.03-1 nM 125I-C5a, 2.5-25 μg/mL purified PMNL membrane fragments, filtration; read-out: Ki (In vitro C5a Receptor Binding Potency)
row,SMILES,Ki
1,"CN[C@@H](Cc1ccccc1)C(=O)N[C@@H](CCCCN)C(=O)N1CCC[C@H]1C(=O)N[C@H](CC1CCCCC1)C(=O)N[C@H](CO)Cc1ccccc1 [Example 119, (N-Methyl)Phenylalanyl-Lysyl-Prolyl-{(2R)-2-Amino-3-cyclohexylpropanoyl}-{(S)-(-)-2-Amino-3-phenyl-1-propanol}] (H-[NMeF]KP[dCha][Phe(ol)])",780 nM
2,"N=C(N)NCCC[C@@H](NC[C@H](Cc1ccccc1)NC(=O)[C@@H](CC1CCCCC1)NC(=O)[C@@H]1CCCN1C(=O)[C@H](CCCCN)NC(=O)CCCCc1ccccc1)C(=O)O [Example 202, {5-Phenylvaleryl}-Lysyl-Prolyl -{(2R)-2-Amino-3-cyclohexylpropanoyl}-Phenylalanyl-.PSI.(CH2 NH)-DArginyl-OH]",52000 nM
3,"C[C@@H](CC(=O)N[C@@H](CCCCN)C(=O)N1CCC[C@H]1C(=O)N[C@H](CC1CCCCC1)C(=O)N[C@@H](CC1CCCCC1)C(=O)N[C@H](CCCNC(=N)N)C(=O)O)c1ccccc1 [Example 57, {S(+)-3-Phenylbutyryl}-Lysyl-Prolyl-{(2R)-2-Amino-3-cyclohexylpropanoyl}-{(2S)-2-Amino-3-cyclohexylpropanoyl}-DArginyl-OH] ({Butanoyl(3S-Ph)}-KP[dCha][Cha][dR]-OH)",27 nM
4,"CN[C@@H](Cc1ccccc1)C(=O)N[C@@H](CCCCN)C(=O)N1CCC[C@H]1C(=O)N[C@H](CC1CCCCC1)C(=O)N[C@@H](CC1CCCCC1)C(=O)NCc1ccccc1 [Example 96, (N-Methyl)Phenylalanyl-Lysyl-Prolyl-{(2R)-2-Amino-3-cyclohexylpropanoyl}-{(2S)-2-Amino-3-cyclohexylpropanoyl}-N-Benzylamide] (H-[NMeF]KP[dCha][Cha]-NHBn)",90 nM
5,"N=C(N)NCCC[C@@H](NC(=O)[C@H](Cc1ccccc1)NC(=O)[C@@H](CC1CCCCC1)NC(=O)[C@@H]1CCCN1C(=O)[C@H](CCCCN)NC(=O)C(CO)c1ccccc1)C(=O)O (stereo partly drawn) [Example 8, {(2R/S)-2-Hydroxymethyl-2-phenylacetyl}-Lysyl-Prolyl-{(2R)-2-Amino-3-cyclohexylpropanoyl}-Phenylalanyl-DArginyl-OH] (X7-KP[dCha]F[dR]-OH)",6200 nM
6,"CN[C@@H](Cc1ccccc1)C(=O)N[C@@H](CCCCN)C(=O)N1CCC[C@H]1C(=O)N[C@H](CC1CCCCC1)C(=O)N[C@@H](CC1CCCCC1)C(=O)NCc1cccc([N+](=O)[O-])c1 [Example 114, (N-Methyl)Phenylalanyl-Lysyl-Prolyl-{(2R)-2-Amino-3-cyclohexylpropanoyl}-{(2S)-2-Amino-3-cyclohexylpropanoyl}-N-(3-Nitrobenzyl)amide] (H-[NMeF]KP[dCha][Cha]-X11)",130 nM
7,"CC[C@H](C(=O)N[C@@H](CCCCN)C(=O)N1CCC[C@H]1C(=O)N[C@H](CC1CCCCC1)C(=O)N[C@@H](CC1CCCCC1)C(=O)N[C@H](CCCNC(=N)N)C(=O)O)c1ccccc1 [Example 2, (S)-(+)-2-phenylbutyryl-Lysyl-Prolyl-{(2R)-2-Amino-3-cyclohexylpropanoyl}-{(2S)-2-Amino-3-cyclohexylpropanoyl}-DArginyl-OH] (X9-KP[dCha][Cha][dR]-OH)",14 nM
8,"N#CC(Cc1ccccc1)(Cc1ccccc1)C(=O)N[C@@H](CCCCN)C(=O)N1CCC[C@H]1C(=O)N[C@H](CC1CCCCC1)C(=O)N[C@@H](Cc1ccccc1)C(=O)N[C@H](CCCNC(=N)N)C(=O)O [Example 88, {2-Benzyl-2-cyano-3-phenylpropionyl}-Lysyl-Prolyl-{(2R)-2-Amino-3-cyclohexylpropanoyl}-Phenylalanyl-DArginyl-OH] (X6-KP[dCha]F[dR]-OH)",670 nM
